Measurements taken from ChEMBL document CHEMBL1146175, “Natural inhibitors targeting osteoclast-mediated bone resorption” (Bioorg Med Chem Lett, 2006).

How the values were obtained:
[1] = molecular target: Matrix metalloproteinase-9 (Homo sapiens, UniProt P14780); assay: Inhibition of human MMP9 by quenched fluorescense assay
Cathepsin K = molecular target: T1, Cathepsin K (Homo sapiens, UniProt P43235); assay: Inhibition of human Cathepsin K
T1 sequence (P43235 whole entry): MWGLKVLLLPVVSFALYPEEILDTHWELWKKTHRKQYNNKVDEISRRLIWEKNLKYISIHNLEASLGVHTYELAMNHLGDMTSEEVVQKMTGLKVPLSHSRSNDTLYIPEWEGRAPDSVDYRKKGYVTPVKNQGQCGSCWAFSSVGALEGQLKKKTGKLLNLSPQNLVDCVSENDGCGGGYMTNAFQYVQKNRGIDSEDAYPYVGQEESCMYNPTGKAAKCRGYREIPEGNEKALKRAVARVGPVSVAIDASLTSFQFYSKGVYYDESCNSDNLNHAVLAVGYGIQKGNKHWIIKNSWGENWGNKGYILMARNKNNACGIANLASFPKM

Integrin alpha-V/beta-3 = Integrin alpha-V/beta-3 (Homo sapiens, UniProt P05106+P06756); assay: Inhibition of human alpha-v-beta-3 integrin receptor by ELISA; type: protein-complex assay
Integrin alpha-V/beta-3, sequence (P05106 27-788 limits assumed): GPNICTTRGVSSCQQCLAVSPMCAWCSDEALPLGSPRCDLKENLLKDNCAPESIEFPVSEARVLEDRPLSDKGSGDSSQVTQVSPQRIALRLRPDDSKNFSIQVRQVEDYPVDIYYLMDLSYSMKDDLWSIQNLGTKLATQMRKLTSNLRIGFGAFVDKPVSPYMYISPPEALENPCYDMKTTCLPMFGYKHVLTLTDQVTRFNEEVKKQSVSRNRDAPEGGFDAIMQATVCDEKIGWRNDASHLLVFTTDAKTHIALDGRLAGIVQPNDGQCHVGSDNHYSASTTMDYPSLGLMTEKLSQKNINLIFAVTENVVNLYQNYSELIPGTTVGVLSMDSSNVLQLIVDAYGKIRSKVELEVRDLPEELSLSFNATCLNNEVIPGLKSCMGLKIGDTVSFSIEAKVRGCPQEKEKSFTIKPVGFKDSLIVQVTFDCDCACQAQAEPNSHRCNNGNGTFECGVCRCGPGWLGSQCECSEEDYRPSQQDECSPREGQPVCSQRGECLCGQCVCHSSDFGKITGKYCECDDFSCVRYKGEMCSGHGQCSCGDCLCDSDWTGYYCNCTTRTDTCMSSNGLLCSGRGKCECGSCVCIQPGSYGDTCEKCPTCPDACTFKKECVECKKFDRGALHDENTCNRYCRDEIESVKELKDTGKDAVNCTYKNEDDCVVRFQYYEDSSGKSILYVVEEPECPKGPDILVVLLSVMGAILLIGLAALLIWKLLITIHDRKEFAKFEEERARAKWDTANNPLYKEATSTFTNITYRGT
Integrin alpha-V/beta-3, sequence (P06756 31-889 limits assumed): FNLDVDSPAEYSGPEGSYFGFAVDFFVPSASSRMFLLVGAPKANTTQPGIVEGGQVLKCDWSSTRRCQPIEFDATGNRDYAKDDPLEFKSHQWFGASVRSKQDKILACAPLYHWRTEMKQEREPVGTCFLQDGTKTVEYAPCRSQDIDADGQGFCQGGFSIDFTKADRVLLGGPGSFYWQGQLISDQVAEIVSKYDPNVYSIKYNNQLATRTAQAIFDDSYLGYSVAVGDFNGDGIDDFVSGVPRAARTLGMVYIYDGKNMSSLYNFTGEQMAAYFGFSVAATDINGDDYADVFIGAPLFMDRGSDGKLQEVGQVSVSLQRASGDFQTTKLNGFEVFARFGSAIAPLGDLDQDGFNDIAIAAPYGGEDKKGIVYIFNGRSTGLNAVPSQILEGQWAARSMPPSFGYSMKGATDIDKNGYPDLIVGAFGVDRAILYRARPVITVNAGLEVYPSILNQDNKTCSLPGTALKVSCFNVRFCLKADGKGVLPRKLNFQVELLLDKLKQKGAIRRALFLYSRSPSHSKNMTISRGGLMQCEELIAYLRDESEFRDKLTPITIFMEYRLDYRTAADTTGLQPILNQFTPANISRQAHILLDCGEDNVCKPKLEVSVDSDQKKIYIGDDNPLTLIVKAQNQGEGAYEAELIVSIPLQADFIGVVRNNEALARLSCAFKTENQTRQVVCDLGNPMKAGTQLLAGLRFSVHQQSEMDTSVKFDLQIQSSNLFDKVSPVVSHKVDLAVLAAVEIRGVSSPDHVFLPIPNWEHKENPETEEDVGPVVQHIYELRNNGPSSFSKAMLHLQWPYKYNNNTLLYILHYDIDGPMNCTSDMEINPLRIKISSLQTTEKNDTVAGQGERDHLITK
Integrin alpha-V/beta-3, sequence (P06756 891-1048 limits assumed): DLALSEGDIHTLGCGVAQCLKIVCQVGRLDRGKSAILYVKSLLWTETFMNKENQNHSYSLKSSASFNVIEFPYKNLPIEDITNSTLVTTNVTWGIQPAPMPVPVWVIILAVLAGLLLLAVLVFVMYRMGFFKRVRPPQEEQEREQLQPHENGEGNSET

Matrix metalloproteinase-9, sequence (P14780 whole entry): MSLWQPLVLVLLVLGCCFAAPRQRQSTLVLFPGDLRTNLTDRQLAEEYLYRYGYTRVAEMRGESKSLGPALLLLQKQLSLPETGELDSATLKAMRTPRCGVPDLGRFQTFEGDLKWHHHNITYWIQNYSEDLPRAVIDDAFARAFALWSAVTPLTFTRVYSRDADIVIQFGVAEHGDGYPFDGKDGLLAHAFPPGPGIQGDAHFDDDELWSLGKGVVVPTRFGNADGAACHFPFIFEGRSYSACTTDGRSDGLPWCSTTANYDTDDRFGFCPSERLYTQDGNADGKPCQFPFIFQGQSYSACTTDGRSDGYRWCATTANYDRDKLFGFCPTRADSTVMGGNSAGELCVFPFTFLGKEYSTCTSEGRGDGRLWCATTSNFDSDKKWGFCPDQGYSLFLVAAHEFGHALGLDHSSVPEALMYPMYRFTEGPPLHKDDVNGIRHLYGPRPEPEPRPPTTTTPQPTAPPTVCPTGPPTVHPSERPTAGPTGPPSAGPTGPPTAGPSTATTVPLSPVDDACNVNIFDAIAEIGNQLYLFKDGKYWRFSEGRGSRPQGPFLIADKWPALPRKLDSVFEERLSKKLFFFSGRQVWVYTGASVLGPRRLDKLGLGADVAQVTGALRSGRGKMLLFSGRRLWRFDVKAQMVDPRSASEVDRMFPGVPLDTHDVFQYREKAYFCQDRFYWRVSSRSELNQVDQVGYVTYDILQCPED

| IC50 (Cathepsin K) [nM] | Structure (SMILES) | also measured |
| --- | --- | --- |
|  | O=C(NO)[C@@H](Cc1ccccc1)NS(=O)(=O)c1ccc(-c2ccccc2)cc1 | IC50 [1]: 7.06 nM |
| 1540 | O=c1cc(-c2ccc(Oc3c(O)cc4oc(-c5ccc(O)cc5)cc(=O)c4c3O)cc2)oc2cc(O)cc(O)c12 [HINOKIFLAVONE] |  |
| 42.2 | CC(=O)N[C@@H](CC(C)C)C(=O)N[C@@H](CC(C)C)C(=O)N[C@H](C=O)CCCNC(=N)N [LEUPEPTIN] |  |
|  | C[C@@H]1C[C@@H](O)[C@@]2(O)[C@@]13C[C@@H](OC(=O)[C@@H]3O)[C@](C)(O)[C@@]21COC1=O [ANIASATIN] | IC50 [1]: 17700 nM |
| 2520 | COc1ccc(-c2cc(=O)c3c(O)cc(O)c(-c4cc(-c5cc(=O)c6c(O)cc(O)cc6o5)ccc4O)c3o2)cc1 [PODOCARPUSFLAVONE A] |  |
| 1880 | O=c1cc(-c2ccc(O)c(-c3c(O)cc(O)c4c(=O)cc(-c5ccc(O)cc5)oc34)c2)oc2cc(O)cc(O)c12 [AMENTOFLAVONE] |  |
|  | O=c1c2ccccc2nc2n1CCc1c-2[nH]c2ccccc12 [RUTAECARPINE] | IC50 [1]: 27700 nM |
|  | O=C(O)/C=C/c1ccccc1O[C@@H]1O[C@H](CO)[C@@H](O)[C@H](O)[C@H]1O [MELILOTOSIDE] | IC50 (Integrin alpha-V/beta-3): 18300 nM |
| 1910 | COc1cc2c([nH]c3c4c(c(C)cc32)OC(C)(C)C=C4)c(-c2c(O)c(OC)cc3c2[nH]c2c4c(c(C)cc23)OC(C)(C)C=C4)c1O |  |
| 1520 | COc1ccc(-c2cc(=O)c3c(O)cc(O)cc3o2)cc1-c1c(O)cc(O)c2c(=O)cc(-c3ccc(O)cc3)oc12 [BILOBETIN] |  |
| 1420 | O=C1C[C@@H](c2ccc(O)c(-c3c(O)cc(O)c4c(=O)cc(-c5ccc(O)cc5)oc34)c2)Oc2cc(O)cc(O)c21 |  |
| 1570 | COc1ccc(-c2cc(=O)c3c(O)cc(OC)c(-c4cc(-c5cc(=O)c6c(O)cc(O)cc6o5)ccc4O)c3o2)cc1 [7'',4'''-dimethylamentoflavone] |  |
